Results on 75 molecules are retold here after PubChem BioAssay AID179 (DTP/NCI, 2004).

Where “and” joins values, the source holds several entries; their conditions need not be identical. Equal values may be shown once. Calls of active or inactive are those of the source.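 How the source made its calls: active means compounds giving half or more protection of infected cells from virus-caused growth loss, again on retest; inactive means the rest.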 Some results are limits rather than exact numbers.

This assay concerns CEM cells HIV-1 protection, formazan growth assay. The experiment in a line: NCI AIDS Antiviral Assay. As to conditions: for IC50: measured here: growth of uninfected CEM cells. A digest of the protocol: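 Screen of anti-HIV-1 activity in human CEM cells using a formazan-based growth measurement at five drug concentrations. Hits with 50% or greater protection were repeated, and confirmation required reproducible complete protection.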

A word on the EC50: it is the concentration that produces a half-maximal response. For orientation: IC50 means the concentration that inhibits the measured activity by half.

Regarding `CC(=O)OCC(OC(C)=O)C(OC(C)=O)C(OC(C)=O)C(C=NN(C(C)=O)S(=O)(=O)c1ccc(/C=C2\NC(=O)NC2=O)cc1)OC(C)=O` (stereo not drawn), the EC50 is more than 200 µM; the IC50 was 87.1 µM and 117 µM.

Take `c1ccc2[nH]c3[nH]c4[nH]c5ccccc5[nH]c4[nH]c3[nH]c2c1`: the EC50 was more than 50.1 µM and the half-inhibitory concentration (IC50) is more than 50.1 µM.

For the molecule `CC1=NN(C(=O)CC(=O)Nc2cccc(C)c2)C(=O)C1N=Nc1ccc(C(=O)O)cc1` (stereo not drawn), the EC50 is more than 200 µM and the IC50 amounted to 28.2 µM.

Consider `O=C1CCCC(O)=C1SC1=C(O)CCCC1=O`, for which the outcome was inactive.

For `COc1cccc(CCNC(=O)CC#N)c1`, the outcome was inactive.

Consider `O=C1C=CC(=O)c2c1c1c(c3c2C2c4ccccc4C3c3ccccc32)C2c3ccccc3C1c1ccccc12`, for which the EC50 was more than 10.2 µM and the IC50 was more than 10.2 µM.

Turning to `c1ccc2c(c1)C1=NCCN1c1ccccc1-2`, the EC50 is more than 309 µM and the IC50 is 1.86 µM.

`O=C(/C=C/C(Cl)(Cl)Cl)Nc1ccc(Cl)cc1`: the EC50 is more than 200 µM and the IC50 worked out at 10.2 µM.

Consider `CCC1(N)COC(c2ccccc2)OC1` (stereo not drawn), for which the EC50 was more than 200 µM and the 50% inhibitory concentration (IC50) is more than 200 µM.

Consider `O=c1c2ccccc2nc(-c2cccc(Cl)c2)n1NC1OC(CO)C(O)C(O)C1O` (stereo not drawn), for which the outcome was inactive.

Take `CCO[C@H]1N(C2CC(N=[N+]=[N-])C(CO)O2)C(=O)NC(=O)[C@]1(C)Cl` (stereo partly drawn): the EC50 is more than 200 µM and the IC50 is more than 200 µM.

In the case of `COc1ccc2[nH]c3c([N+](=O)[O-])ccc(Cl)c3c(=O)c2c1`, the outcome was inactive.

Regarding `CC/C(=N/OC(=O)NC)c1ccccc1`, the EC50 is more than 200 µM and the half-inhibitory concentration (IC50) is more than 200 µM.

On to `O=c1oc2ccccc2c(O)c1Cc1cccc(Cc2c(O)c3ccccc3oc2=O)c1`, for which the outcome was active.

Take `CC(C)(C)NN=C1C(C)(C)C(=NNC(C)(C)C)C1(C)C`: the EC50 is more than 316 µM and the IC50 is more than 316 µM.

Turning to `O.O.O=C(O)C(=O)O.O=C(O)C(=O)O.[Cu]`, the EC50 was more than 200 µM and the IC50 is 20.9 µM.

As to `Cc1occc1C(=S)Nc1ccc(Cl)c(C(=O)OCC(F)(F)F)c1`, the EC50 is 0.0195 µM and the IC50 is 19.1 µM.

Regarding `Nc1ncnc2c1ncn2C1OC(COC2C(O)C(OC3OC(CO)C(O)C(O)C3N)C(O)C(OS(=O)(=O)O)C2OC(=O)[C@@H](N)CO)C(O)C1O` (stereo partly drawn), the EC50 was more than 200 µM and the IC50 was more than 200 µM.

Take `NC(CSS(=O)(=O)O)=NCC12CC3CC(CC(C3)C1)C2`: the EC50 is more than 200 µM and the concentration for half-maximal inhibition (IC50) was found to be 32.4 µM.

Turning to `O=c1ccn(/C=C(\c2ccccc2)S(=O)Cc2ccccc2)c(=S)[nH]1` (stereo not drawn), the outcome was inactive.

For the molecule `COC(=O)C(=O)C(C(=O)C=C(C)C)C(=O)C(=O)Nc1nc2ccc([N+](=O)[O-])cc2s1` (stereo not drawn), the EC50 was more than 60.3 µM and the IC50 is more than 60.3 µM.

Turning to `CCOC(=O)c1nc2ccc(C(F)(F)F)cc2nc1NCc1cc(OC)c(OC)c(OC)c1`, the EC50 was more than 126 µM and the IC50 is more than 126 µM.

As to `CC1C2CC(C/C2=N/O)C1(C)C` (stereo not drawn), the EC50 was more than 1480 µM and the 50% inhibitory concentration (IC50) is 437 µM.

`CC(C)CCCC(C)[C@H]1CC[C@H]2[C@@H]3CC[C@H]4C[C@@H](CCC=C(c5cc(Cl)c(O)c(C(=O)OC(C)C)c5)c5cc(Cl)c(O)c(C(=O)OC(C)C)c5)CC[C@]4(C)[C@H]3CC[C@]12C` (stereo partly drawn): the EC50 was 67.6 µM and the IC50 was 151 µM.

For `O=C1COc2ccc([N+](=O)[O-])cc2C(=O)C1`, the EC50 is more than 200 µM and the half-maximal inhibitory concentration (IC50) was more than 200 µM.

Regarding `O=S(=O)(O)C1=C2Sc3ccccc3N=C2c2ccccc2C1`, the EC50 is more than 141 µM and the 50% inhibitory concentration (IC50) worked out at 7.94 µM.

Regarding `Cc1ccc2c(c1)C(c1cccc3ccccc13)OC2=O` (stereo not drawn), the result was inactive.

`CCC(=O)N(c1ccccc1)C(C)CN1CCC(O)(c2ccccc2)CC1` (stereo not drawn): the EC50 is more than 200 µM and the IC50 is more than 200 µM.

On to `C=C1CN(S(=O)(=O)c2ccc(C)cc2)CCCN(Cc2ccccc2)CCN(S(=O)(=O)c2ccc(C)cc2)C1`, for which the EC50 was more than 200 µM and the half-inhibitory concentration (IC50) came to 155 µM.

`CC(C)=CCN1Cc2cccc3[nH]c(=S)n(c23)C[C@@H]1C`: the half-maximal effective concentration (EC50) was 0.0302 µM and the IC50 came to 1.74 µM.

Consider `COC(=O)c1ccc(/C=C2\CCc3ccccc3C2=O)cc1`, for which the EC50 was more than 200 µM and the IC50 is more than 200 µM.

With `O[C@H]1c2cccn2-c2ccccc2S[C@H]1c1ccccc1`, the EC50 was more than 83.2 µM and the IC50 stood at 43.7 µM.

Consider `Cc1ccc(C2(O)c3ccccc3N=NN2C)cc1` (stereo not drawn), for which the EC50 was more than 269 µM and the IC50 was 105 µM.

On to `COC(=O)c1cc(=O)n(C)c2ccc(OC)cc12`, for which the EC50 is more than 200 µM and the IC50 came to 166 µM.

`CCCCCNC(=O)C(O)C(O)C(=O)NCCCCC` (stereo not drawn): the EC50 is more than 126 µM and the IC50 was more than 126 µM.

`N#CC(c1ccc(Cl)cc1)c1cccc(Cl)n1` (stereo not drawn): the EC50 is more than 70.8 µM and the IC50 was more than 70.8 µM.

In the case of `COc1cc2c(cc1OC)C1Cc3ccccc3CN1CCC2` (stereo not drawn), the EC50 is more than 200 µM and the IC50 was 141 µM.

Take `Nc1ccc2c(c1)NC(=O)[C@@H]1CCCN1C2=O`: the EC50 was more than 200 µM and the IC50 is more than 200 µM.

`O=C(ON=c1c2ccccc2ccc2ccccc12)c1ccccc1`: the EC50 is more than 200 µM and the IC50 amounted to 33.9 µM.

For the molecule `Cc1ccccc1N1CC2CC3C=CC2(C1)O3` (stereo not drawn), the EC50 was more than 200 µM and the half-inhibitory concentration (IC50) was more than 200 µM.

Consider `CC(=O)OCCOCn1cnc2c(Cl)nc(Cl)nc21`, for which the EC50 was more than 200 µM and the IC50 came to 7.24 µM.

Turning to `CCN(N=O)C1C2(CCCC2)NC(=O)C12CCCC2` (stereo not drawn), the result was inactive.

Regarding `COc1cc(NC=O)c(OC)cc1Cl`, the result was inactive.

Regarding `O=C(Nc1nc2ccccc2n1Cc1ccc(Cl)cc1)C(=O)NC12CC3CC(CC(C3)C1)C2`, the EC50 is more than 21.4 µM and the 50% inhibitory concentration (IC50) was more than 21.4 µM.

With `Nc1c(Cl)cccc1-c1c[nH]c(Cl)c1Cl`, the EC50 is more than 138 µM and the IC50 turned out to be 72.4 µM.

Take `COc1cc2ccc3c4cc(OC)c(OCc5ccccc5)cc4cnc3c2cc1OC`: the outcome was inactive.

With `O/N=C1\CCCCC1C(NO)c1ccccc1` (stereo not drawn), the EC50 was more than 398 µM and the half-maximal inhibitory concentration (IC50) amounted to 191 µM.

In the case of `CCOc1cc2cnc3c4cc(OC)c(OC)cc4ccc3c2cc1OC`, the EC50 was more than 70.8 µM and the concentration for half-maximal inhibition (IC50) is 34.7 µM.

With `COC(=O)C12Oc3ccc(-c4ccc5c(c4O)C(=O)C4=CCC(C)C(O)C4(C(=O)OC)O5)c(O)c3C(=O)C1=CCC(C)C2O` (stereo not drawn), the EC50 is more than 12 µM and the IC50 was 1.78 µM.

For `COC(=O)c1ccc(C)cc1C1CN=NC12Cc1cccc(C)c1C2=O` (stereo not drawn), the EC50 was more than 200 µM and the half-inhibitory concentration (IC50) was more than 200 µM.

`CC(C)=CCN1Cc2c(F)ccc3[nH]c(=S)n(c23)CC1C` (stereo not drawn): the half-maximal effective concentration (EC50) was 0.0398 µM and the IC50 stood at 70.8 µM.

As for `COc1ccc(C(=O)O/N=C2/CCC/C2=C\c2ccccc2)cc1`, the outcome was inactive.

As for `CC(=O)O[C@]12CCCCCC1C1(O)C(O)CCCC[C@H]12` (stereo partly drawn), the EC50 is more than 200 µM and the IC50 was more than 200 µM.

As to `Cc1cc(Cl)ccc1NC(=O)/C(Cc1nc2ccc(C(=O)c3ccccc3)cc2[nH]c1=O)=N/NC(=O)c1ccncc1`, the EC50 was more than 224 µM and the IC50 came to 75.9 µM.

Take `CCOC1=NC(C(F)(F)F)(C(F)(F)F)N=C(/N=C(/N)N(C)C(C(C)C)P(=O)(OC(C)C)OC(C)C)O1` (stereo not drawn): the EC50 is more than 200 µM and the half-maximal inhibitory concentration (IC50) worked out at 31.6 µM.

For `Cc1csc2nc3[nH]ncc3c(=O)n12`, the EC50 was more than 200 µM and the IC50 came to 97.7 µM.

In the case of `CCCCCCCCCCCCCCCC(=O)OC1C(O)C(CO)OC(OC)C1NC(=O)N(CCCl)N=O` (stereo not drawn), the EC50 was more than 12.6 µM and the IC50 is more than 12.6 µM.

Turning to `COc1ccc(C2=Nc3cc(C)c(C)cc3NC(c3ccccc3)C2)cc1` (stereo not drawn), the EC50 is more than 200 µM and the half-inhibitory concentration (IC50) is 28.8 µM.

Consider `O[C@]12c3ccccc3C1CCCC2N1CCOCC1` (stereo partly drawn), for which the EC50 was more than 200 µM and the half-maximal inhibitory concentration (IC50) is more than 200 µM.

`CSCCC(N)CO` (stereo not drawn): the EC50 is more than 200 µM and the IC50 was more than 200 µM.

Take `C(/Cc1ccc2c(c1)OCO2)=N\NC1=NCCCCN1`: the EC50 is more than 200 µM and the IC50 was 105 µM.

In the case of `COc1ccc(CN2COc3c(cc(Cl)c4cccnc34)C2)cc1`, the EC50 is more than 200 µM and the IC50 came to 1.55 µM.

Take `CCOC(=O)C(NC(=O)c1ccccc1)(N1CCOCC1)C(F)(F)F` (stereo not drawn): the EC50 was more than 200 µM and the concentration for half-maximal inhibition (IC50) is more than 200 µM.

On to `CCC1N2CCCCC2[C@@H]2c3[nH]c4ccccc4c3CCN12` (stereo partly drawn), for which the EC50 was more than 447 µM and the half-maximal inhibitory concentration (IC50) came to 389 µM.

`N#C/C(c1nc2ccccc2[nH]1)=c1\s/c(=C/c2ccccc2)c(=O)n1-c1ccccc1`: the EC50 is more than 200 µM and the IC50 was more than 200 µM.

Consider `Cn1c2c(c3ccccc31)C1C(=O)N(c3ccccc3)C(=O)C1CC2` (stereo not drawn), for which the EC50 was more than 57.5 µM and the half-maximal inhibitory concentration (IC50) was more than 57.5 µM.

On to `O=C1NC(=O)C(=O)C(c2nc3ccccc3s2)C1=O`, for which the result was inactive.

As for `O=C(NO)c1ccc(OCc2cccc(Cl)c2)cc1`, the EC50 is more than 200 µM and the half-maximal inhibitory concentration (IC50) came to 10 µM.

As to `CCOP(=O)(OCC)O/N=C/c1cccc(C(F)(F)F)c1`, the EC50 was more than 204 µM and the IC50 is more than 204 µM.

Take `C1CCCN(N2CCOCC2)CC1`: the EC50 was more than 200 µM and the 50% inhibitory concentration (IC50) is more than 200 µM.

For the molecule `CC(NNC(=O)c1ccncc1)c1ccc(Cl)cc1Cl` (stereo not drawn), the EC50 was more than 200 µM and the IC50 is 132 µM.

As for `O=C(Nc1nc(=S)[nH][nH]1)C(=O)C1C(=O)Nc2ccccc2S1=O` (stereo not drawn), the EC50 is more than 372 µM and the half-inhibitory concentration (IC50) is more than 372 µM.

With `CN1C2=C(CC3=C1CC(C)(C)CC3=O)C(=O)CC(C)(C)C2`, the EC50 was more than 100 µM and the IC50 is more than 100 µM.

For the molecule `CCCCNC=C1C(=O)Nc2ccccc2NC1=O`, the EC50 was more than 200 µM and the IC50 was more than 200 µM.

On to `CCOC(=O)c1c(C)c(C(C)=O)c2ccccn12`, for which the EC50 was more than 145 µM and the IC50 worked out at 95.5 µM.
